# What was measured:
# AP-1 = experiment: Luciferase reporter assay in J-27 T cells, three copies of the CD95L promoter AP-1 motif; format: cell-based; settings: J-27 cells, 50 µM vitamin E 1 h, PMA/ionomycin 8 h (Fig. 4)
# From the text: (§1) J-27 T cells were transiently transfected with the luciferase reporter constructs containing the 0.86-kb CD95L promoter (Li-Weber et al., Eur. J. Immunol. 30 (2000), 661), or three copies of the NF-κB binding sites at -530 or -50 region (Li-Weber et al., Eur. J. Immunol. 30 (2000), 661) or the AP-1 motif at +90 region (Eichhorst et al., Mol. Cell. Biol. 20 (2000), 7826) of the CD95L promoter as described in Li-Weber et al., 2000. All promoter constructs are described in the cited references. A luciferase reporter construct containing three copies of the Egr consensus binding site was used as a control (Li-Weber et al., Eur. J. Immunol. 29 (1999), 3017). After overnight culture, the cells were divided and treated with vitamin E (VE) (50 µM) or the vitamin E solvent ethanol for 1 h and than further cultured in the absence (empty box) or presence (black box) of PMA (10 ng/ml) and ionomycin (0.5 µM). Luciferase activity was determined after 8 h of stimulation. Results represent the average of three to five independent transfection experiments.
# (§2) To further investigate the effect of vitamin E on CD95L expression, the CD95L promoter (-860 to +100) or a minimal TATA promoter containing three copies of either the NF-B or the AP1 sites of the CD95L promoter were linked to the luciferase reporter gene and these constructs were transiently transfected into J-27 T cells. […]
# NF-κB = experiment: Luciferase reporter assay in J-27 T cells, three copies of the CD95L promoter NF-κB binding sites; format: cell-based; settings: J-27 cells, 50 µM vitamin E 1 h, PMA/ionomycin 8 h (Fig. 4)
# From the text: as §1, §2
# CD95L mRNA [1] = experiment: CD95L mRNA expression by RT-PCR in J-27 T cells stimulated by PMA and ionomycin; format: cell-based; settings: J-27 cells
# Experimental: J-27 T cells were cultured in the absence or presence of 50 µM vitamin E for 1 h and then stimulated by PMA (10 ng/ml) and ionomycin (0.5 µM) for the indicated times. CD95L mRNA expression was analyzed by RT-PCR. Primers for IFNγ and β-actin were used as controls.
# (§3) To further investigate the molecular mechanism by which vitamin E attenuates AICD, several Jurkat T cell sub-clones susceptible to T-cell-receptor (TCR)-mediated-activation-induced apoptosis were selected. Data from one of the representative clones, clone 27 (J-27) is presented here. Activation of T cells through the T cell receptor can be mimicked by stimulation with the phorbol ester (PMA) and calcium ionophores (ionomycin). […] Therefore, it is unlikely that vitamin E directly interferes with signals downstream of the CD95 receptor. […] Thus, vitamin E may reduce CD95L expression at the transcriptional level and, therefore, attenuate AICD in J-27 cells. Experimental details are given in the legend to Figure 2.
# J-27 cells = experiment: α-APO-1 induced CD95-triggered apoptosis in J-27 cells; format: cell-based; settings: 50 µM vitamin E 1 h, then α-APO-1 10 ng/ml with 10 ng/ml protein A (Fig. 2D)
# Experimental: J-27 cells were cultured in the absence or presence of 50 µM vitamin E for 1 h and than, treated with α-APO-1 (10 ng/ml) antibody, DKFZ, Prof. Krammer, Trauth et al., Science 245 (1989), 301 in the presence of 10 ng/ml protein A for the indicated times.
# as §3
# Egr binding site = experiment: Luciferase reporter assay in J-27 T cells, three copies of the Egr consensus binding site (control); format: cell-based; settings: J-27 cells, 50 µM vitamin E 1 h, PMA/ionomycin 8 h, control (Fig. 4)
# From the text: as §1, §2
# IFNγ mRNA = IFNγ mRNA levels by RT-PCR (control) in day 6 T cells stimulated with plate bound α-CD3; format: cell-based, human; settings: 25 µM vitamin E 1 h, then α-CD3 12 h (Fig. 1B)
# Experimental: The day 6 T cells were cultured in the absence or presence of 25 µM vitamin E for 1 h and then stimulated for 12 h with plate bound α-CD3. The mRNA was analyzed by RT-PCR using primers specific for CD95L (Eichhorst et al., Mol. Cell. Biol. 20 (2000), 7826) . For controls, primers for IFNγ and β-actin were used. The primers had the following sequences: • CD95L: sense-5'-[…]-3' antisense-5'[…]-3' • IFN-γ: sense-5'[…]-3' antisense-5'[…]-3' • human β-actin: sense-5'[…]-3' antisense-5'[…]-3'
# Since activation-induced-cell-death (AICD) is a major cause of T cell depletion in AIDS and since supplementation of vitamin E is shown to increase T cell numbers, it was investigated whether vitamin E could protect from T cell depletion by AICD. To analyze the effect of vitamin E on T cell death, freshly isolated peripheral blood T cells were prestimulated for 6 days (referred to as day 6 cells) and subsequently restimulated via the TCR by plate-bound α-CD3 antibodies. […] CD95 (APO-1/Fas) and its ligand (CD95L) are known to play a major role in AICD of T cells. […] The concentration of vitamin E in plasma from healthy individuals normally ranges from 12-35 µM. Thus, vitamin E at physiological concentrations may attenuate AICD. Indeed, depending on the blood donors, vitamin E reduced AICD by 20-50%. […]
# CD95L promoter = experiment: Luciferase reporter assay in transiently transfected J-27 T cells, 0.86-kb CD95L promoter; format: cell-based; settings: J-27 cells, 50 µM vitamin E 1 h, PMA/ionomycin 8 h (Fig. 4)
# From the text: as §1, §2
# CD95L mRNA [2] = experiment: CD95L mRNA levels by RT-PCR in peripheral blood lymphocytes of HIV positive individuals; format: cell-based, human; settings: 25 µM vitamin E 1 h, α-CD3 12 h (Fig. 5)
# Experimental: Freshly isolated peripheral blood lymphocytes from HIV positive individuals were treated without or with vitamin E (VE) (25 µM) for 1 h and than stimulated with plate bound α-CD3 ([…]) for 12 h. CD95L mRNA levels were examined by RT-PCR (Eichhorst et al., 2000). Results from 5 individuals are shown.
# It was investigated whether vitamin E could block CD95L expression in the peripheral blood lymphocytes of HIV positive individuals. Peripheral blood lymphocytes from such individuals were subjected to analysis of the CD95L mRNA expression levels in the absence or the presence of vitamin E. Different levels of the CD95L mRNA expression were found in lymphocytes from different HIV patients examined. […] Experimental details are given in the legend to Figure 5.
smiles,measurement,setting,value
"Cc1c(C)c2c(c(C)c1O)CC[C@@](C)(CCC[C@H](C)CCC[C@H](C)CCCC(C)C)O2 [vitamin E, α-tocopherol]",luciferase expression driven by the AP-1 site of the CD95L promoter,AP-1,greatly reduced
same,luciferase expression driven by the NF-κB site of the CD95L promoter,NF-κB,greatly reduced
same,CD95L mRNA expression,"CD95L mRNA [1]; 50 µM vitamin E 1 h, then PMA/ionomycin (Fig. 2E)",substantially reduced
same,reduction of CD95L mRNA expression,"CD95L mRNA [1]; 50 µM vitamin E, 3 h post stimulation (Fig. 2E)",readily seen
same,CD95L mRNA expression,"CD95L mRNA [1]; 50 µM vitamin E, 6 h post stimulation (Fig. 2E)",nearly completely blocked
same,α-APO-1 induced CD95-triggered apoptosis,J-27 cells,did not prevent
same,luciferase expression driven by the Egr binding site,Egr binding site,did not affect
same,levels of IFNγ mRNA,IFNγ mRNA,did not significantly influence
same,luciferase expression driven by the CD95L promoter,CD95L promoter,greatly reduced
same,expression of CD95L mRNA,CD95L mRNA [2],completely blocked in most patients

# — EP1273297A1, “Vitamin E for the treatment of diseases in which the binding of the transcription factor NF-KB and/or AP-1 to promoter target sites has a beneficial effect (eg AIDS, cardiac infarction)” (Deutsches Krebsforschungszentrum Stiftung des öffentlichen …, priority 2001, dated 2003)
